Reference: patent US12195452B2, “N-(4-(oxazol-5-yl)phenyl) chromane-3-carboxamide derivatives and related compounds as stimulators of the production of retinal precursor cells for the treatment of neuroretinal diseases” (ENDOGENA THERAPEUTICS, INC., priority 2018, dated 2025)

test system: retinal precursor cells; test: Sphere passaging and high-throughput drug screening: proliferation of retinal precursor cells from the ciliary epithelium, cell number after one week; format: cell-based, mammalian; details: control experiment (absence of a compound) = 100; cells grown for one week
Method: Kynurenic Acid (0.2 mg/mL), trypsin (1.33 mg/mL), and hyaluronidase (0.67 mg/mL) were weighed out and dissolved in high magnesium/low calcium artificial cerebral spinal fluid (aCSF) at 37° C. Fibroblast growth factor 2 (FGF2; 10 ng/mL) and heparin (2 μg/mL) were added to 100 mL of serum-free media (SFM). Ovomucoid trypsin inhibitor (1 mg/mL) was dissolved in warm SFM and sterile filtered ([…]).
A dissecting microscope, cold light source, and sterile surgical instruments were set up inside of a sterile biological safety cabinet (BSC). Mammalian eyes were enucleated and placed in a petri dish containing cold, sterile aCSF. Under the dissecting microscope, hair, connective tissue, and the dorsal and ventral oblique muscles were cleared from the scleral/corneal border with two sets of forceps. Next, curved or angled micro-dissecting scissors were used to cleave any remaining extraocular muscle tissue, the optic nerve, and cut the eyeball into symmetrical halves; beginning and finishing the cut from the hole left by the optic nerve. Using two sets of forceps to grasp the cornea, the two eye halves were peeled apart. The lens, optic nerve, and vitreous were separated from the eye shells and the eye shells were transferred into a new petri dish (also containing cold, sterile aCSF). To isolate the ciliary epithelium (CE), eye shells were oriented with the cornea on the right and retinal pigmented epithelium (RPE) on the left. A pair of straight forceps were used to pin down the eye shell on the RPE side while a scalpel blade was inserted between the CE and the iris, using pressure to slice the iris/cornea side off from the rest of the shell. Next, the scalpel was run along the border between the CE and the RPE to obtain the CE isolated as a thin strip of tissue. The CE strips were then transferred to a 35 mm dish containing 2 mL of dispase solution (Sigma; T1005) and incubated for 10 minutes at 37° C. Next, the strips were transferred from dispase into a 35 mm dish containing 2 mL of sterile filtered kynurenic acid, trypsin and hyaluronidase solution and incubated at 37° C. for 10 minutes. After incubation, the dish was returned to the dissecting scope, and the CE strips were pinned down with straight, non-serrated forceps, while non-serrated curved forceps were used to scrape the CE off from the underlying sclera. The bare scleral strips were then discarded, such that only the CE cells remained in the enzyme solution. Using a fire-polished, cotton-plugged glass pipette, the cells and enzyme solution were transferred to a 15 mL tube and triturated approximately 45 times to break apart the tissue. The 15 mL tube/cell suspension was centrifuged for 5 minutes at 1500 rpm. The supernatant was gently aspirated from the resulting pellet using a fire-polished, cotton-plugged glass pipette and 2 mL of trypsin inhibitor solution was added to the pellet. Using a small borehole, fire-polished, cotton-plugged glass pipette, the sample was triturated approximately 45 times until it was a single-cell suspension. The 15 mL tube/cell suspension was centrifuged for 5 minutes at 1500 rpm. The supernatant was gently aspirated from the resulting pellet and 1-2 mL of SFM with FGF2 and heparin (plating media) was added. The cells and media were mixed to ensure a uniform cell suspension and a 10 uL sample was taken and cell density was determined. The cells were then seeded and cultured at 10c/μL in culture-treated plates or flasks. After one week, roughly 1 in 500 cells proliferated to form free-floating, clonal spheres greater than 80 μm in diameter.
Human-derived spheres were passaged using the kynurenic acid, trypsin, hyaluronidase enzyme solution with the addition of collagenase I (0.5 mg/mL), collagenase II (0.5 mg/mL) and elastase (0.1 mg/mL). Mouse-derived spheres were passaged using hyaluronidase (0.67 mg/mL), collagenase I (0.5 mg/mL), and collagenase II (0.5 mg/mL) dissolved in Accustase solution (Sigma; SCR005). […]

Molecule	Cell proliferation within one week [%]
O=C(Nc1ccc(-c2cnco2)cc1OC(F)F)C1COc2ccccc2C1 (racemic) [Compound 24, N-(2-(difluoromethoxy)-4-(oxazol-5-yl)phenyl)chroman-3-carboxamide]	126
O=C(Nc1ccc(-c2cnco2)c(Cl)c1)C1COc2ccccc21 (racemic) [Compound 35, N-(3-chloro-4-(oxazol-5-yl)phenyl)-2,3-dihydrobenzofuran-3-carboxamide]	125
COc1ccc2c(c1)CC(C(=O)Nc1ccc(-c3cnco3)c(F)c1)CO2 (racemic) [Compound 10, N-(3-fluoro-4-(oxazol-5-yl)phenyl)-6-methoxychromane-3-carboxamide]	121
O=C(Nc1ccc(-c2cnco2)c(Cl)c1)C1CCOc2ccccc21 (racemic) [Compound 32, N-(3-chloro-4-(oxazol-5-yl)phenyl)chromane-4-carboxamide]	113
Cc1cc(NC(=O)C2COc3ccccc3C2)ccc1-c1cnco1 (racemic) [Compound 22, N-(3-methyl-4-(oxazol-5-yl)phenyl) chromane-3-carboxamide]	120
O=C(Nc1ccc(-c2nnco2)c(F)c1)C1COc2ccccc2C1 (racemic) [Compound 29, N-(3-fluoro-4-(1,3,4-oxadiazol-2-yl)phenyl)chromane-3-carboxamide]	108
N-(2-(difluoromethoxy)-4-(oxazol-5-yl)phenyl)chroman-3-carboxamide [Compound 26]	138
O=C(Nc1ccc(-c2cnco2)c(Cl)c1)C1CCc2ccccc21 (racemic) [Compound 33, N-(3-chloro-4-(oxazol-5-yl)phenyl)-2,3-dihydro-1H-indene-1-carboxamide]	116
COc1cc(NC(=O)C2COc3ccccc3C2)ccc1-c1ccncc1 (racemic) [Compound 17, N-(3-methoxy-4-(pyridin-4-yl)phenyl)chromane-3-carboxamide]	114
Cc1cc(-c2cnco2)ccc1NC(=O)C1COc2ccccc2C1 (racemic) [Compound 23, N-(2-methyl-4-(oxazol-5-yl)phenyl) chroman-3-carboxamide]	116
COc1cc(NC(=O)C2CCOc3ccccc32)ccc1-c1cnco1 (racemic) [Compound 11, N-(3-methoxy-4-(oxazol-5-yl)phenyl) chromane-4-carboxamide]	140

same assay, conditions: within one week, over control

Molecule	increase of cell proliferation [%]
COc1cc(NC(=O)C2CCOc3ccccc32)ccc1-c1cnco1 (racemic) [Compound 11, N-(3-methoxy-4-(oxazol-5-yl)phenyl) chromane-4-carboxamide]	40
